Assay results taken from US5459160A, “Iridoid derivatives and the use thereof as a drug” (Tsumura & Co., priority 1990, dated 1995).
Like-named read-outs stand apart in the source and are kept apart here.

Experiments:
Acute toxicity test = details: mouse, in vivo, ip; male S.P.P. mice, abdominally administered; Table 11
Description: The acute toxicity test was carried out by abdominally administering each test drug to male S.P.P. mice and determining an LD50 value.

bile secretion = assay: Cholagogic action, bile secretion (Experimental Example 5); type: in vivo, male Wistar rats; details: intraduodenal
Description: After male Wistar rats 7 weeks old were fasted for 24 hours, they were anesthetized by the interperitoneal administration of 1.25 g/kg (volume 2 m.iota./kg) of urethane. A polyethylene canula (SP-10, a product of Natsume Seisakusho) was inserted into a bile duct and after the bile was caused to flow out for 30 minutes, the bile was collected in the cource of 1 hour. Thereafter, each test drug was suspended or dissolved in a 1% aqueous Tween-80 solution, and was administered into the duodenum at a rate of 5 m.iota./kg. Furthermore, the bile was collected every hour in the course of five hours, and its weight was measured. Only a 1% Tween-80 solution was given as a control.
The results are tabulated in Tables 6, 7, 8, 9 and 10, wherein the bile secretion amount every hour was represented by a percentage with the bile secretion amount (mg) one hour before the dose of the test drug being 100.

[1] = test system: cholic acid and chenodeoxycholic acid synthetic activity in liver cells; assay: Synthetic activity of bile acid (cholic acid and chenodeoxycholic acid) in incubated liver cells (Experimental Example 3); type: cell-based, male Wistar rats; details: Rattus norvegicus, Hepatocyte, 24 hours, 37° C., control 100; for activity at 1 µM: 10^-6 M; for activity at 0.1 µM: 10^-7 M; for activity at 0.01 µM: 10^-8 M
Description: Influences on Synthetic Activity of Bilic Acid in Incubated Liver Cell
The liver cells were separated from male Wistar rats 5.0-5.5 weeks old using a reflux method in accordance with the method of Nakamura et al (Toshikazu Nakamura "The Experimental Method for the Primary Cultured Hepatocytes", 1987). In this case, the separation of the cells was started at 9-10:00 a.m. The separated liver cells were floated in a Williams E medium inactivated by heat-treatment and containing 10% FBS, 20 mU/m.iota. insulin, […] dexamethasone, 100 IU/m.iota. peniciline and 100 μg/m.iota. streptomycin so that the cell density became 1×10^5 cells/cm^2 /0.2 m.iota.. The liver cells were planted in a cell density of 1×10^5 cells/cm^2 /0.2 m.iota. in a dish having a diameter of 60 mm. After incubation at 37° C. for 4 hours, a medium exchange was made and the medium was changed to 3 m.iota.. Next, [4-^14 C] cholesterol was added in an amount of 11.655 kBq per dish, and a 0.33% ethanol solution of each test drug was added. Control used only 0.33% ethanol. After incubation was carried out at 37° C. for 24 hours, the synthetic activity of cholic acid and chemodexycholic acid generated in the cells and the medium were measured.
Measurement of Cholic Acid and Chenodeoxycholic Acid Synthetic Activity
The measurement of cholic acid and chenodeoxycholic acid synthetic activity was carried out in accordance with the method of M. G. Pricen et al (Hans M. G. Pricen, Chrisstine M. G. HuJismans, Folkerr Kuipers, Roel J. Vonk and Herman Jan M. Kempen, J. Clin. Invest., 78: 1064-1071, 1986). Twenty-four hours later, the cells and the medium were collected from the incubated liver cells and the cells were pulverized by a ultrasonic pulverizer. Bile acid was separated and eluted by a column cartridge having an opposite phase system, i.e., "Sep-pak"® C18 (Waters Associates, Milford, Mass.), and the conjugation of conjugated bile acid was hydrolyzed using choloylglycine hydrolase. The extraction of bile acid was carried out using chloroform after the solution was rendered acidic by hydrochloric acid. The extract was dissolved in 100 μ.iota. of water:methanol (1:4, containing 40 μg/10 μ.iota. cholic acid and 100 μg/100 μ.iota. chenodeoxycholic acid). 80 μ.iota. of this solution was spotted onto an aluminum plate (MERCK, ART 5582) and was developed using a developing solution consisting of benzene/1,4-dioxane/acetic acid (20:10:2). After the TLC plate was exposed to an iodine gas stream and each spot of bile acid was confirmed, it was cut off and its radioactivity was measured by a liquid scintillation counter. To correct the proportion of elution of the Sep-pak and the hydroclysis and extraction of conjugated bile acid by choloylglycine hydrolase, 2 nCi of [^3 H(G)] taurocholic acid was added and 3H of the spot of cholic acid was measured after the supersonic pulverization and correction was thus carried out (TsuJita, Y., Kuroda, M., Shimada, Y., Tanzawa, K., Arai, M., Kenko, I., Tanaka, M., Tarumi, C., Watanabe, Y., and Fujii, Biochemical et Biophysics Acta. 877:50-60, 1986).
Non-radioactive cholic acid and chenodeoxycholic acid were added as a carrier, to clarify the position of the spot by the iodine gas stream when bile acid was developed, but for the β-muricholic acid, the position of the spot was indefinite even when the non-radioactive acids were added. Therefore, the portion estimated by the Rf value described in the reference was cut off and measured again.

hyperlipemia = assay: Anti-hyperlipemia test in rats on high fat food (Experimental Example 1); type: in vivo, Male Wistar rats; details: peroral once a day, two weeks, control 100, Table 1
Text: Male Wistar rats 6.5 weeks old were allowed to freely intake a high fat food (containing 1% of cholesterol, 0.5% of sodium cholate, 12% of beef tallow and 20% of standard chow) in the cource of two weeks, to thus cause an outbreak of hyperlipemia. The dose of the drug was started simultaneously with the application of the high fat food, and was perorally given once a day through a stomach tube until the end of the experiment. The drugs were all suspended in a cane sugar fatty acid ester and were administered. The oily compounds were adjusted in advance to 100 mg/m.iota. by diethyl ether. A suitable amount was collected at the time of the dose and after diethyl ether was evaporated and removed, it was suspended in a cane sugar fatty acid ester (1% ryoto sugar ester) and then given. After the final dose of the drug, the rats were fasted for about 18 hours, and the blood was sampled to measure the blood serum lipid. The blood serum lipid was measured by using a TBA-380 biochemical analyzer (a product of Toshiba Medical Co.,) unless a particular hindrance occurred.

[2] = test system: cholesterol synthesis in liver slices; assay: Cholesterol synthesis from [1-14C] acetic acid in liver slices (Experimental Example 2); type: cell-based, male Wistar rats; details: drug final concentration 0.1-1.0 mM, 37° C., 120 minutes; control 100; Table 2
Description: Liver slices (0.5 mm) were prepared from male Wistar rats 5 weeks old acclimated for 10 days in a bright/dark inversion raising chamber (bright period: 8:00 p.m.-8:00 a.m.). […] Incubation was carried out at 37° C. for 120 minutes in 95% oxygen and 5% carbon dioxide. The reaction was stopped by adding 1 m.iota. of 15% potassium hydroxide/ethanol, and saponification was carried out at 80° C. for 2 hours. The sterol fraction was extracted by petroleum ether and was evaporated to driness. Thereafter, 1 m.iota. of acetone/ethanol (1:1) and 1 m.iota. of 0.5% digitonine were added, and the mixture was left standing for a night at room temperature. The precipitate was collected by centrifugal separation and was washed with 2 m.iota. of acetone/ether (1:1). The precipitate was further centrifuged. After the supernatant was discarded, the precipitate was dissolved in methanol and its radioactivity was measured.

[3] = 0-1 hour after dose, control 82.9, Table 6
[4] = 1-2 hour after dose, control 74.1, Table 6
[5] = 2-3 hour after dose, control 66.1, Table 6
[6] = 3-4 hour after dose, control 59.8, Table 6
[7] = 4-5 hour after dose, control 53.3, Table 6
[8] = Table 4, read-out: Relative amount of synthesized chenodeoxycholic acid
[9] = Table 4, read-out: Relative amount of synthesized cholic acid
[10] = Table 3, read-out: Relative amount of synthesized chenodeoxycholic acid
[11] = Table 3, read-out: Relative amount of synthesized cholic acid

SMILES	LD50 (Acute toxicity test) [mg/kg]	Bile secretion amount, percentage of the hour before dose (bile secretion; [3]) [%]	Bile secretion amount, percentage of the hour before dose (bile secretion; [4]) [%]	Bile secretion amount, percentage of the hour before dose (bile secretion; [5]) [%]	Bile secretion amount, percentage of the hour before dose (bile secretion; [6]) [%]	Bile secretion amount, percentage of the hour before dose (bile secretion; [7]) [%]	activity at 1 µM [1, 8] [%]	activity at 1 µM [1, 9] [%]	Relative amount of synthesized cholesterol (%) [2] [%]	further results
CC1=COC(O)[C@H]2[C@@H]1CC[C@@H]2C (stereo partly drawn) [Definite Example 43, (4aS, 7S, 7aR)-1,4a, 5,6,7,7a-hexahydro-4,7-dimethylcyclopenta[c]pyran-1-ol]	231	156.2	95.2	76.1	65.7	58.3	105	109		
COC(=O)C1=COC(O)[C@@H]2[C@H](C)CC[C@H]12 (stereo partly drawn) [Definite Example 31, methyl (4aS, 7R, 7aR)-1,4a, 5,6,7,7a-hexahydro-1-hydroxy-7-methylcyclopenta[c]pyran-4-carboxylate]	814						113	105		Bile secretion amount, percentage of the hour before dose (bile secretion; 0-1 hour after dose, control 84.1, Table 8): 126.7%; Bile secretion amount, percentage of the hour before dose (bile secretion; 1-2 hour after dose, control 72.5, Table 8): 88.0%; Bile secretion amount, percentage of the hour before dose (bile secretion; 2-3 hour after dose, control 63.8, Table 8): 73.0%; Bile secretion amount, percentage of the hour before dose (bile secretion; 3-4 hour after dose, control 56.7, Table 8): 63.7%; Bile secretion amount, percentage of the hour before dose (bile secretion; 4-5 hour after dose, control 51.2, Table 8): 55.1%; Blood serum cholesterol (%) (hyperlipemia; 10 mg/kg): 82.0%; Blood serum triglyceride (%) (hyperlipemia; 10 mg/kg): 79.0%; Blood serum cholesterol (%) (hyperlipemia; 30 mg/kg): 96.1%; Blood serum triglyceride (%) (hyperlipemia; 30 mg/kg): 76.5%
C[C@@H](CO)[C@H]1CC[C@H](C)[C@H]1CO [Definite Example 45, (2R)-2-[(1R, 2R, 3S)-2-(hydroxymethyl)-3-methylcyclopent-1-yl]propan-1-ol]	406	163.8	99.7	78.6	67.8	59.1				Bile secretion amount, percentage of the hour before dose (bile secretion; 0-1 hour after dose, control 87.7, Table 7): 163.4%; Bile secretion amount, percentage of the hour before dose (bile secretion; 1-2 hour after dose, control 75.3, Table 7): 99.6%; Bile secretion amount, percentage of the hour before dose (bile secretion; 2-3 hour after dose, control 65.0, Table 7): 75.2%; Bile secretion amount, percentage of the hour before dose (bile secretion; 3-4 hour after dose, control 58.7, Table 7): 61.7%; Bile secretion amount, percentage of the hour before dose (bile secretion; 4-5 hour after dose, control 51.8, Table 7): 53.3%; activity at 1 µM [1, 10]: 152%; activity at 1 µM [1, 11]: 146%; activity at 0.1 µM [1, 10]: 119%; activity at 0.1 µM [1, 11]: 121%; activity at 0.01 µM [1, 10]: 112%; activity at 0.01 µM [1, 11]: 108%
COC(=O)C1=COC(OC(=O)c2ccccc2)C2C(C)=CCC12 [Definite Example 36, methyl (2S, 4aS, 7aS)-1-benzoyloxy-1,4a, 5,7a-tetrahydro-7-methylcyclopenta[c]pyran-4-carboxylate]									72.4	
CCOC(C)O[C@@H]1OC=C(C(=O)OC)[C@H]2CC=C(C=O)[C@@H]12 (stereo partly drawn) [Definite Example 22, methyl (1S, 4aS, 7aS)-1-[1-(ethoxy)ethoxy]-7-formyl-1,4a, 5,7a-tetrahydrocyclopenta[c]pyran-4-carboxylate]									86.2	
C[C@H]1COC(O)[C@H]2[C@@H]1CC[C@@H]2C (stereo partly drawn) [Definite Example 44, (4R, 4aR, 7S, 7aR)-1,3,4,4a, 5,6,7,7a-octahydro-4,7-dimethylcyclopenta[c]pyran-1-ol]	389	137.2	95.0	78.4	66.5	59.8	155	130		
COC(=O)C1=COC(O)[C@@H]2C(C=O)=CC[C@H]12 (stereo partly drawn) [Definite Example 23, methyl (4aS, 7aS)-7-formyl-1,4a, 5,7a-tetrahydro-1-hydroxycyclopenta[c]pyran-4-carboxylate]									80.1	
COC(=O)C1=CO[C@@H](OC(C)=O)[C@@H]2C(C)=CC[C@H]12 [Definite Example 38, methyl (1S, 4aS, 7aS)-1-acetoxy-1,4a, 5,7a-tetrahydro-7-methylcyclopenta[c]pyran-4-carboxylate]									72.8	
